For the data set the following is noted: PAMPA, PAMPA_Papp_Avg (apparent permeability). A general note: PAMPA measures passive passage across an artificial lipid membrane.

Where a SMILES comes first, the peptide text is derived from it. [ ]: non-standard residue; d: D form. NMeF = CN[C@@H](Cc1ccccc1)C(=O)O; dNMeF = CN[C@H](Cc1ccccc1)C(=O)O; NMeL = CN[C@@H](CC(C)C)C(=O)O; dNMeL = CN[C@H](CC(C)C)C(=O)O; NMeV = CN[C@H](C(=O)O)C(C)C; NMeA = CN[C@@H](C)C(=O)O; dNMeA = CN[C@H](C)C(=O)O

With `CC[C@@H](C)[C@H]1NC(=O)[C@H]2CCCN2C(=O)[C@@H]2CCCN2C(=O)[C@@H]([C@H](C)CC)NC(=O)[C@@H](Cc2ccccc2)NC(=O)[C@@H](Cc2ccccc2)N(C)C(=O)[C@@H]2CCCN2C(=O)[C@@H](C(C)C)NC1=O` [Design D8.33, fiPpivP*f] (cyclo(P[dNMeF][dF][dI]P[dP][dI][dV])), the Papp (as a rule, the rate of passage across a membrane or cell layer, normalised by area and donor concentration) is 6 ×10⁻⁶ cm/s.

Regarding `CC[C@H](C)[C@@H]1NC(=O)[C@@H](C)N(C)C(=O)[C@@H](C)N(C)C(=O)[C@@H]2CCCN2C(=O)[C@H](CC(C)C)NC(=O)[C@H](CC(C)C)NC(=O)[C@@H](CC(C)C)NC(=O)[C@@H]2CCCN2C(=O)[C@H]2CCCN2C1=O` [Design D9.11, PlLLP*a*aIp] (cyclo([dL]LLP[dNMeA][dNMeA]I[dP]P)), the Papp came to 0.316 ×10⁻⁶ cm/s.

Take `CC[C@H](C)[C@@H]1NC(=O)[C@@H](CC(C)C)NC(=O)[C@@H]2CCCN2C(=O)[C@@H]2CCCN2C(=O)[C@@H](CC(C)C)NC(=O)[C@@H]2CCCN2C(=O)[C@H]2CCCN2C(=O)[C@@H](C(C)C)NC(=O)[C@@H](C)N(C)C1=O` [Design D9.14, PlI*avpPlP] (cyclo([dL]PP[dL]I[dNMeA][dV][dP]P)): the Papp turned out to be 0.421 ×10⁻⁶ cm/s.

For `CC[C@H](C)[C@@H]1NC(=O)[C@@H](C)NC(=O)[C@@H]2CCCN2C(=O)[C@H]2CCCN2C(=O)[C@@H]2CCCN2C(=O)[C@@H](C)NC(=O)[C@@H](Cc2ccccc2)NC(=O)[C@@H](CC(C)C)N(C)C(=O)[C@@H](CC(C)C)N(C)C1=O` [Design D9.15, PpPaI*l*lfa] (cyclo([dA]I[dNMeL][dNMeL][dF][dA]P[dP]P)), the Papp is 0.341 ×10⁻⁶ cm/s.

As for `CC[C@@H](C)[C@H]1NC(=O)[C@H]2CCCN2C(=O)[C@@H](C)NC(=O)[C@@H](CC(C)C)N(C)C(=O)[C@H]([C@@H](C)CC)NC(=O)[C@@H](C(C)C)NC(=O)[C@@H](CC(C)C)N(C)C(=O)[C@@H]2CCCN2C(=O)[C@@H]2CCCN2C1=O` [Design D9.26, piPP*lvI*la] (cyclo(I[dNMeL][dA][dP][dI]PP[dNMeL][dV])), the Papp amounted to 1.99 ×10⁻⁶ cm/s.

Take `CSCC[C@@H]1NC(=O)[C@@H](C)N(C)C(=O)[C@@H]2CCCN2C(=O)[C@@H](CC(C)C)NC(=O)[C@H](CC(C)C)N(C)C(=O)[C@H]2CCCN2C(=O)[C@H](CC(C)C)NC(=O)[C@@H](CC(C)C)NC(=O)[C@@H](C)NC1=O` [Design D9.28, lLp*LlP*aMa] (cyclo(L[dP][NMeL][dL]P[dNMeA]M[dA][dL])): the Papp came out at 1.57 ×10⁻⁶ cm/s.

For `CC(C)C[C@@H]1C(=O)N[C@H](C)C(=O)N[C@@H](C(C)C)C(=O)N2CCC[C@@H]2C(=O)N[C@H](C(C)C)C(=O)N2CCC[C@@H]2C(=O)N2CCC[C@H]2C(=O)N[C@H](C)C(=O)N(C)[C@H](CC(C)C)C(=O)N1C` [Design D9.29, vpPa*l*laVp] (cyclo([dA][dNMeL][dNMeL][dA]V[dP][dV][dP]P)), the Papp turned out to be 0.664 ×10⁻⁶ cm/s.

With `CC[C@@H](C)[C@H]1NC(=O)[C@H](CC(C)C)NC(=O)[C@@H](C)N(C)C(=O)[C@@H]2CCCN2C(=O)[C@H](C)NC(=O)[C@@H](CC(C)C)NC(=O)[C@H]2CCCN2C(=O)[C@H](C(C)C)NC(=O)[C@@H](CC(C)C)N(C)C1=O` [Design D9.30, plAP*aLi*lV] (cyclo(AP[dNMeA]L[dI][dNMeL]V[dP][dL])), the Papp came to 1.6 ×10⁻⁶ cm/s.

In the case of `CC[C@@H](C)[C@H]1NC(=O)[C@H](Cc2ccccc2)NC(=O)[C@@H](C)NC(=O)[C@@H](CC(C)C)N(C)C(=O)[C@@H]2CCCN2C(=O)[C@H](C)NC(=O)[C@H]2CCCN2C(=O)[C@@H]2CCCN2C(=O)[C@@H](Cc2ccccc2)NC1=O` [Design D9.41, PpAP*laFif] (cyclo(AP[dNMeL][dA]F[dI][dF]P[dP])), the Papp was 1.02 ×10⁻⁶ cm/s.

On to `CC[C@H](C)[C@@H]1NC(=O)[C@@H](C(C)C)NC(=O)[C@@H]2CCCN2C(=O)[C@@H](CC(C)C)N(C)C(=O)[C@@H](C(C)C)NC(=O)[C@H](CC(C)C)N(C)C(=O)[C@H]2CCCN2C(=O)[C@@H](C)NC(=O)[C@H](Cc2ccccc2)N(C)C(=O)[C@H]2CCCN2C1=O` [Design D10.3., Ip*Fap*Lv*lPv] (cyclo(I[dP][NMeF][dA][dP][NMeL][dV][dNMeL]P[dV])), for which the apparent permeability coefficient (Papp) is 2.52 ×10⁻⁶ cm/s.

For `CC(C)C[C@@H]1C(=O)N2CCC[C@@H]2C(=O)N(C)[C@@H](C(C)C)C(=O)N[C@@H](C(C)C)C(=O)N2CCC[C@H]2C(=O)N2CCC[C@@H]2C(=O)N[C@@H](C)C(=O)N[C@H](C(C)C)C(=O)N(C)[C@@H](CC(C)C)C(=O)N[C@@H](C)C(=O)N1C` [Design D10.6, PpAv*LA*lp*VV] (cyclo(A[dNMeL][dP][NMeV]VP[dP]A[dV][NMeL])), the Papp worked out at 0.509 ×10⁻⁶ cm/s.

Regarding `CC[C@@H](C)[C@H]1NC(=O)[C@H](CC(C)C)N(C)C(=O)[C@H]2CCCN2C(=O)[C@H](CC(C)C)NC(=O)[C@H](Cc2ccccc2)N(C)C(=O)[C@H](CC(C)C)N(C)C(=O)[C@@H](C(C)C)NC(=O)[C@H](C)NC(=O)[C@H]2CCCN2C(=O)[C@@H]2CCCN2C1=O` [Design D10.17, *L*FLp*LiPpAv] (cyclo(A[dV][NMeL][NMeF]L[dP][NMeL][dI]P[dP])), the Papp worked out at 2.69 ×10⁻⁶ cm/s.

For the molecule `CC[C@@H](C)[C@H]1NC(=O)[C@H](C(C)C)NC(=O)[C@H]2CCCN2C(=O)[C@@H]2CCCN2C(=O)[C@H](CC(C)C)N(C)C(=O)[C@H](C)N(C)C(=O)[C@@H](CC(C)C)N(C)C(=O)[C@H](C)NC(=O)[C@@H](Cc2ccccc2)NC(=O)[C@@H]2CCCN2C1=O` [Design D10.25, fA*l*A*LPpViP] (cyclo(A[dNMeL][NMeA][NMeL]P[dP]V[dI]P[dF])), the Papp was 0.756 ×10⁻⁶ cm/s.

As to `CC[C@@H](C)[C@H]1NC(=O)[C@@H]2CCCN2C(=O)[C@@H](Cc2ccccc2)NC(=O)[C@H](CC(C)C)N(C)C(=O)[C@H](C)NC(=O)[C@H]2CCCN2C(=O)[C@@H]2CCCN2C(=O)[C@H](CC(C)C)NC(=O)[C@H](CC(C)C)N(C)C(=O)[C@H](C)N(C)C1=O` [Design D10.26, Pi*A*LLPpA*Lf] (cyclo(A[NMeL][dF]P[dI][NMeA][NMeL]LP[dP])), the Papp is 0.808 ×10⁻⁶ cm/s.

Take `CC(C)C[C@H]1NC(=O)[C@H](CC(C)C)N(C)C(=O)[C@@H](Cc2ccccc2)NC(=O)[C@@H](C)N(C)C(=O)[C@@H]2CCCN2C(=O)[C@H](C(C)C)NC(=O)[C@H](CC(C)C)N(C)C(=O)[C@@H](C)NC(=O)[C@@H]2CCCN2C(=O)[C@H]2CCCN2C1=O` [Design D10.32, P*af*LlpPa*LV] (cyclo([dA][NMeL]VP[dNMeA][dF][NMeL][dL][dP]P)): the Papp was determined as 1.86 ×10⁻⁶ cm/s.

As to `CSCC[C@@H]1NC(=O)[C@H](CC(C)C)NC(=O)[C@@H]2CCCN2C(=O)[C@H]2CCCN2C(=O)[C@@H](C)NC(=O)[C@H]2CCCN2C(=O)[C@@H](CC(C)C)NC(=O)[C@@H](C)N(C)C(=O)[C@H](CC(C)C)N(C)C(=O)[C@@H](C)N(C)C1=O` [Design D10.40, M*a*L*alpapPL] (cyclo(LM[dNMeA][NMeL][dNMeA][dL][dP][dA][dP]P)), the Papp worked out at 0.34 ×10⁻⁶ cm/s.

On to `CC[C@@H](C)[C@H]1NC(=O)[C@@H](CC(C)C)NC(=O)[C@@H](CC(C)C)NC(=O)[C@H]2CCCN2C(=O)[C@H](CC(C)C)N(C)C(=O)[C@@H](C)N(C)C(=O)[C@@H]2CCCN2C(=O)[C@@H]([C@H](C)CC)NC(=O)[C@@H](C(C)C)NC(=O)[C@@H]2CCCN2C1=O` [Design D10.46, PviP*a*Lplli] (cyclo([NMeL][dP][dL][dL][dI]P[dV][dI]P[dNMeA])), for which the Papp was determined as 0.388 ×10⁻⁶ cm/s.

For the molecule `CC(C)C[C@@H]1NC(=O)[C@@H](Cc2ccccc2)N(C)C(=O)[C@H](C(C)C)NC(=O)[C@H](C)NC(=O)[C@@H](C)NC(=O)[C@@H](Cc2ccccc2)N(C)C(=O)[C@@H]2CCCN2C(=O)[C@H](C(C)C)NC(=O)[C@@H]2CCCN2C(=O)[C@@H](C)NC1=O` [Design D10.48, aPVP*faAV*fL] (cyclo(AV[dNMeF]L[dA]PVP[dNMeF][dA])), the Papp stood at 0.716 ×10⁻⁶ cm/s.

(Values after US20260274895A1, “DE NOVO DESIGNED MEMBRANE-TRAVERSING AND ORALLY BIOAVAILABLE MACROCYCLES” (UNIVERSITY OF WASHINGTON, priority 2022, published 2026).)
